Assay results as given in US9309187B2, “EP2 receptor agonists” (TAKEDA GMBH, priority 2012, dated 2016).

Columns and labels:
human EP2 receptor = target: T1, human EP2 receptor (Homo sapiens, UniProt P43116); experiment: EP2 binding assay (PGE2 displacement); settings: recombinant human EP2 membranes, 1 nanoM [3H]-PGE2; reported as range bins; read-out: EP2 binding (PGE2 displacement) pIC50 (-log IC50) (converted)
T1 construct: purchased Millipore
Procedure: Method for Measuring Inhibition of PGE2 Binding to the Human Prostanoid Receptor EP2:
Human EP2 receptor equilibrium competition binding assays were performed according to Abramovitz et al. (M. Abramovitz et al. 2000, Biochimica et Biophysica Acta 1483: 285-293) in a final incubation volume of 100 microL in 50 milliM Bis-Tris, pH6.0 in 96-well plates. Radiolabelled Prostaglandin E2 (PGE2) (1 nanoM [^3H]-PGE2 purchased from Perkin Elmer) was added to the assay as competitive ligand. Test compounds stored as Dimethylsulfoxide (DMSO) stock solutions were added to the assay in serial dilutions in assay buffer while keeping the final DMSO concentration equal in each sample. The reaction was initiated by addition of membrane proteins harbouring human EP2 receptor (ChemiSCREEN™ membrane preparation recombinant human EP2 prostanoid receptor that was purchased by Millipore). Total binding was determined in the absence of test compound or PGE2 and non-specific binding was determined in the presence of 1 microM PGE2. Incubations were conducted for 60 minutes at room temperature until equilibrium was reached and terminated by filtration through GF/B filter (Perkin Elmer) prewetted with 0.3% PEI solution. Unbound radiolabelled PGE2 was removed by 8 wash cycles with the same buffer under ice-cold conditions and the filters containing the residual radioactivity were dried for 60 minutes at 60° C. In order to measure the filter bound radioactivity, 40 microL microscint (scintillation liquid) was added to each filter and the chemiluminescence was determined by TopCount-NTX™. The specific binding was calculated by subtracting non-specific binding from each sample. Percent inhibition by test compounds was calculated based on specific binding without test compound. Each sample was measured in triplicates per experiment and for the calculation of the pIC50 at least 2 independent experiments were performed. Determination of half maximal inhibiting concentration (IC50) was performed with GraphPad Prism Software.
The numbers of the compounds correspond to the examples numbers.
EP2 Binding Assay (PGE2 Displacement): pIC50 Values

[1] = target: T2, human prostanoid receptor EP2 (Homo sapiens, UniProt P43116); experiment: EP2 cAMP release assay in CHOp6CreLuc-huEP2 cells (CRE-luciferase readout); assay type: cell-based; settings: CHOp6CreLuc-huEP2 cells, 4 hours at 37° C.; reported as range bins; read-out: EP2 cAMP release assay pEC50 (-log EC50) (converted)
T2 construct: expressed in transfected cells; host or cells: CHO-K1 (CHOp6CreLuc-huEP2)
T2 sequence (P43116 whole entry): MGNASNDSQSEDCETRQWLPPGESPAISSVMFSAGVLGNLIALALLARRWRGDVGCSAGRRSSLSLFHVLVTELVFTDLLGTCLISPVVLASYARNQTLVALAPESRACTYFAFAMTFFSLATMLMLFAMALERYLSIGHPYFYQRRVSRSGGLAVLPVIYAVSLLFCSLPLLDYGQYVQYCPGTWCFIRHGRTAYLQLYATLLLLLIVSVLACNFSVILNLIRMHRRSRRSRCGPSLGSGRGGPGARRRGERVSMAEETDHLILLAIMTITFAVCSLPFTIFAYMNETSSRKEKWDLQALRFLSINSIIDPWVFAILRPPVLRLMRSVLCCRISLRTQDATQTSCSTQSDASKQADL
Procedure: Method for Measuring cAMP Release in Human EP2 Stably Transfectant Cells:
The potency and efficacy of EP2 agonists have been determined via measuring cAMP release in stably transfectant CHO-K1 cell expressing the human prostanoid receptor EP2 and luciferase enzyme regulated via a 6 times CRE (cAMP response element) containing transcriptional promoter. CHOp6CreLuc-huEP2 cells were seeded into 384-well plate (1000 cells per well) in DMEM/F12 (Dulbecco's Modified Eagle Medium/Nutrient Mixture F12) cell culture medium containing 2% FCS (Fetal Calf Serum) and 500 μg/ml G418 24 hours prior to the experiment. Test compound was added as serial dilutions while keeping the final DMSO concentration constant in each well. […] Cells were incubated together with test compound or butaprost for 4 hours at 37° C. The cAMP release was determined indirectly via luciferase activity that directly correlated to the amount of luciferase enzyme expressed in response to cAMP regulated promoter activity. The luciferase activity was determined by addition of luciferin containing buffer and subsequent quantification of resulting luminescence. Each sample was measured in quadruplicates per experiment and half-maximal effective concentration (EC50) and relative maximal effect compared to butaprost was determined from 3 independent experiments with GraphPad Prism Software. A compound that achieved over 80% of the maximal effect of butaprost was considered as full agonist.
For the following compounds the potency was determined in the cAMP release assay applying human EP2 transfectant CHOp6CreLuc-huEP2 cells. […] The numbers of the compounds correspond to the examples numbers.
EP2 cAMP Release Assay: pEC50

[2] = test system: TNFalpha release in human peripheral blood mononuclear cells (PBMC) stimulated with LPS; experiment: Inhibition of LPS induced TNFalpha release in human PBMCs; assay type: cell-based; settings: 1 ng/mL LPS, 24 hours, reported as range bins, read-out: Inhibition of LPS induced TNFalpha release in human PBMCs pIC30 (-log IC30)
Procedure: Method for Measuring the Inhibition of TNFalpha Release in Human Peripheral Blood MononuClear Cells (PBMC) Stimulated with LPS:
Assay was performed with some modifications of the method described by Hatzelmann and Schudt (Hatzelmann and Schudt 2001, J. Pharmacol. Exp. Therapeutics 297: 267-279) and the protocol “drawing of venous blood from healthy volunteers for in vitro studies” was approved by the ethics committee of the Landesärztekammer Baden Württemberg in Stuttgart. Peripheral blood mononuclear cells (PBMCs) were isolated from venous blood with the anticoagulant citrate from healthy donors according to standard protocols using Ficoll. The cell layer of PBMCs were washed twice with phosphate buffer solution and equilibrated at room temperature for 60 minutes. 500,000 PBMCs in 180 microL RPMI1640 cell medium supplemented with 10% FCS, NEAA (Non-essential-amino-acids), L-Glutamine and Sodium Pyruvate per sample were pre-incubated with 10 microL of a serial dilution of test compound or piclamilast as positive control for 60 min. at 37° C. After pre-incubation blood samples were stimulated by the addition of 10 microL LPS (Sigma, Aldrich) per sample resulting in a final concentration of 1 ng/mL LPS and a final volume of 200 microL. Cells were incubated for 24 hours at 37° C. TNFalpha levels were determined from cell supernatant that was obtained by a centrifugation step and transferring the supernatant to a new 96-well plate. Content of TNFalpha was determined via alphaLISA Technology according to manufacture protocol (Perkin Elmer).
PBMC samples that were not stimulated with LPS were used as control and set for 100% inhibition. PBMC samples that were stimulated with LPS and solvent instead of test compound were set as 0% inhibition. Percent inhibition was calculated based on these controls for each sample and since most compounds achieved saturating maximal inhibition of 60% a pIC30 value was calculated with GraphPad Prism Software.
For the following compounds the inhibitory values of TNFalpha release [determined as −log IC30=pIC30] in human PBMCs between 5.0 and 5.9, between 6.0 and 6.9, between 7.0 and 7.9 and between 8.0 and 9.0 have been determined. The numbers of the compounds correspond to the examples numbers.
Inhibition of LPS Induced TNFalpha Release Assay in Human PBMCs: pIC30

T1 sequence (P43116 whole entry): as above

Row | IC50 (human EP2 receptor) [nM] | EC50 [1] [nM] | Structure (SMILES) | IC30 [2] [nM]
1 | 1.26 to 10 | 0.00631 to 0.1 | O=C(O)/C=C/c1cccc(NC(=O)c2cc(-c3ccccc3)cc3ccccc23)c1 [Example 1, (2E)-3-(3-{[(3-phenylnaphthalen-1-yl)carbonyl]amino}phenyl)prop-2-enoic acid] | 1 to 10
2 | 1.26 to 10 | 0.00631 to 0.1 | O=C(O)/C=C/c1ccc(F)c(NC(=O)c2cc(-c3ccccc3)cc3ccccc23)c1 [Example 2, (2E)-3-(4-fluoro-3-{[(3-phenylnaphthalen-1-yl)carbonyl]amino}phenyl)prop-2-enoic acid] | 1 to 10
3 | 1.26 to 10 | 0.00631 to 0.1 | O=C(O)/C=C/c1ccc(Cl)c(NC(=O)c2cc(-c3ccccc3)cc3ccccc23)c1 [Example 3, (2E)-3-(4-chloro-3-{[(3-phenylnaphthalen-1-yl)carbonyl]amino}phenyl)prop-2-enoic acid] | –
4 | 1.26 to 10 | 0.00631 to 0.1 | O=C(O)/C=C/c1ccc(F)c(NC(=O)c2cc(-c3ccccc3F)cc3ccccc23)c1 [Example 9, (2E)-3-{3-[({3-[2-fluorophenyl]naphthalen-1-yl}carbonyl)amino]-4fluorophenyl}prop-2-enoic acid] | 12.6 to 100
5 | 1.26 to 10 | 0.00631 to 0.1 | O=C(O)/C=C/c1ccc(F)c(NC(=O)c2cc(-c3cccc(F)c3)cc3ccccc23)c1 [Example 10, (2E)-3-{3-[({3-[3-fluorophenyl]naphthalen-1-yl}carbonyl)amino]-4fluorophenyl}prop-2-enoic acid] | 1 to 10
